Data reported in EPA's ToxValDB 9.5 (doi:10.2903/j.efsa.2011.1969).
Converted amounts (≈) assume the structure as drawn.

Assays:
[1] = test system: Rattus norvegicus
[2] = test system: Bibionidae; details: chronic/long-term; duration: 27 days
[3] = test system: Oncorhynchus mykiss
[4] = test system: Anas platyrhynchos; details: short-term; oral; feed; mortality
[5] = test system: Apis mellifera; details: acute; duration: 48 hours; oral; unspecified; mortality
[6] = test system: Colinus virginianus; details: acute; oral; mortality
[7] = test system: Tagia sp.; details: acute; duration: 14 days; mortality
[8] = test system: Folsomia candida; details: chronic/long-term; duration: 28 days
[9] = test system: Daphnia magna; details: chronic/long-term; duration: 21 days; reproduction
[10] = test system: Coturnix japonica; details: reproduction developmental
[11] = test system: Aphidius rhopalosiphi; test: LR50; higher = less toxic; details: not reported; mortality
[12] = test system: Typhlodromus pyri; test: LR50; higher = less toxic; details: not reported; mortality

With `CCNc1nc(Cl)nc(NC(C)(C)C)n1` [Terbutylazine] the LD50 ([1]; acute, oral, mortality) was less than 1590 mg/kg, the NOAEL ([1]; chronic) was 3.3 mg/kg-day and the NOEC [2] was 0.5 mg/L. For the same compound, the LC50 ([3]; acute, duration: 96 hours, mortality) was 2.2 mg/L (≈ 9.58 µM), the NOEC ([3]; chronic/long-term, duration: 90 days, time to swim up) was 0.09 mg/L and the LC50 [4] was greater than 395 mg/kg-day. It also gave an LD50 [5] greater than 22.6 µg/piece, an LD50 [6] of 1240 mg/kg-day and an LC50 [7] greater than 283 mg/kg. For the same compound, the NOEC [8] was 42.2 mg/kg, the NOEC [9] was 0.019 mg/L and the NOEL [10] was 13.8 mg/kg-day. For the same compound, the LR50 [11] was greater than 750 g/ha and the LR50 [12] was greater than 750 g/ha.
